Measured values taken from the supplement of paper PMC10307832.

Assays:
Experiment in all cases: relative viability (nuclei count vs DMSO), 5 days (fraction); higher = more cells survive
[1] = compound: CN(C)C[C@@H]1CCn2cc(c3ccccc32)C2=C(C(=O)NC2=O)c2cn(c3ccccc23)CCO1 [Ruboxistaurin] + Nc1nc2[nH]cc(CCc3ccc(C(=O)N[C@@H](CCC(=O)O)C(=O)O)cc3)c2c(=O)[nH]1 [Pemetrexed] (partner 0.2 µM)
Procedure, shortened: (§1)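 Nuclei were stained with Hoechst during a one-step fixation (final 0.05% Triton X-100, 1% formaldehyde, 1 ug/ml Hoechst) carried out 5 days after dosing, then counted on 4× images. The cells, lung cancer lines in 1536-well plates, had been dosed by pin tool the day after seeding with one drug alone or a fixed anchor-drug dose plus five library-drug doses (not always all listed) in √10 steps. Relative viability is the nuclei count in treated wells divided by that in vehicle wells, and each value is the median of duplicate plates.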

[2] = compound: CN(C)C[C@@H]1CCn2cc(c3ccccc32)C2=C(C(=O)NC2=O)c2cn(c3ccccc23)CCO1 [Ruboxistaurin] + CC(=O)c1c(C)c2cnc(Nc3ccc(N4CCNCC4)cn3)nc2n(C2CCCC2)c1=O [Palbociclib] (partner 0.5 µM)
Procedure, shortened: as §1

[3] = compound: CN(C)C[C@@H]1CCn2cc(c3ccccc32)C2=C(C(=O)NC2=O)c2cn(c3ccccc23)CCO1 [Ruboxistaurin] + CC(C)C[C@H](NC(=O)[C@H](Cc1ccccc1)NC(=O)c1cnccn1)B(O)O [Bortezomib] (partner 0.002 µM)
Procedure, shortened: as §1

[4] = compound: CN(C)C[C@@H]1CCn2cc(c3ccccc32)C2=C(C(=O)NC2=O)c2cn(c3ccccc23)CCO1 [Ruboxistaurin] + Nc1ncn([C@H]2C[C@H](O)[C@@H](CO)O2)c(=O)n1 [Decitabine] (partner 2 µM)
Procedure, shortened: as §1

[5] = compound: CN(C)C[C@@H]1CCn2cc(c3ccccc32)C2=C(C(=O)NC2=O)c2cn(c3ccccc23)CCO1 [Ruboxistaurin] + COc1cc2c(Oc3ccc(NC(=O)C4(C(=O)Nc5ccc(F)cc5)CC4)cc3F)ccnc2cc1OCCCN1CCOCC1 [Foretinib] (partner 0.25 µM)
Procedure, shortened: as §1

| Cell Line | relative viability ([1]; first compound 0.08 µM) | relative viability ([1]; first compound 0.8 µM) | relative viability ([1]; first compound 2.53 µM) | relative viability ([1]; first compound 8 µM) | relative viability ([2]; first compound 0.08 µM) | relative viability ([2]; first compound 0.8 µM) | relative viability ([2]; first compound 2.53 µM) | relative viability ([2]; first compound 8 µM) | relative viability ([3]; first compound 0.08 µM) | relative viability ([3]; first compound 0.8 µM) | relative viability ([3]; first compound 2.53 µM) | relative viability ([3]; first compound 8 µM) | relative viability ([4]; first compound 0.08 µM) | relative viability ([4]; first compound 0.8 µM) | relative viability ([4]; first compound 2.53 µM) | relative viability ([4]; first compound 8 µM) | relative viability ([5]; first compound 0.08 µM) | relative viability ([5]; first compound 0.8 µM) | relative viability ([5]; first compound 2.53 µM) | relative viability ([5]; first compound 8 µM) |
| --- | --- | --- | --- | --- | --- | --- | --- | --- | --- | --- | --- | --- | --- | --- | --- | --- | --- | --- | --- | --- |
| NCI-H2085 | 1.07 | 0.868 | 0.944 | 0.904 | 0.472 | 0.479 | 0.452 | 0.56 | 1.07 | 0.987 | 1.09 | 1.17 | 0.485 | 0.534 | 0.67 | 0.667 | 0.878 | 0.757 | 1.28 | 1.12 |
| NCI-H2087 | 0.641 | 0.679 | 0.662 | 0.693 | 0.28 | 0.253 | 0.285 | 0.291 | 0.794 | 0.615 | 0.798 | 1.04 | 0.243 | 0.21 | 0.241 | 0.263 | 1.2 | 0.934 | 1.07 | 0.876 |
| NCI-H2126 | 0.699 | 0.65 | 0.674 | 0.623 | 0.341 | 0.384 | 0.367 | 0.395 | 1.11 | 1.05 | 1.18 | 1.16 | 0.586 | 0.581 | 0.562 | 0.552 | 1.14 | 1.13 | 1.2 | 1.12 |
| NCI-H2347 | 0.45 | 0.413 | 0.372 | 0.44 | 0.441 | 0.425 | 0.358 | 0.42 | 1.25 | 1.11 | 0.957 | 1.02 | 0.648 | 0.58 | 0.626 | 0.664 | 0.951 | 0.798 | 1.05 | 0.763 |
| NCI-H2405 | 1.13 | 1.04 | 1.11 | 1.01 | 0.545 | 0.538 | 0.522 | 0.486 | 1.01 | 1.01 | 1 | 0.94 | 0.798 | 0.676 | 0.763 | 0.756 | 1.07 | 0.961 | 0.998 | 1.01 |
| NCI-H3122 | 0.191 | 0.201 | 0.191 | 0.187 | 0.176 | 0.149 | 0.196 | 0.336 | 1.07 | 0.953 | 1.01 | 1.1 | 0.535 | 0.376 | 0.466 | 0.426 | 0.938 | 0.982 | 1.01 | 0.975 |
| PC-3 [JPC-3] | 1.22 | 1.09 | 1.17 | 1.04 | 0.561 | 0.487 | 0.518 | 0.556 | 0.855 | 0.804 | 0.793 | 0.85 | 0.897 | 0.814 | 0.922 | 0.838 | 1.06 | 1.03 | 1.02 | 1.09 |
| PC-14 | 0.135 | 0.136 | 0.136 | 0.115 | 0.603 | 0.452 | 0.51 | 0.528 | 1.11 | 0.743 | 0.899 | 1.1 | 0.283 | 0.203 | 0.293 | 0.295 | 1.01 | 0.87 | 1 | 0.984 |
| RERF-LC-KJ | 0.48 | 0.46 | 0.483 | 0.446 | 1.17 | 0.934 | 1.12 | 0.995 | 1.09 | 0.992 | 1.1 | 0.937 | 0.784 | 0.587 | 0.743 | 0.682 | 0.879 | 0.777 | 0.864 | 0.869 |
| SK-LU-1 | 0.944 | 0.913 | 1.12 | 0.954 | 0.427 | 0.342 | 0.429 | 0.381 | 1.37 | 1.03 | 1.22 | 1.07 | 0.744 | 0.573 | 0.668 | 0.751 | 0.93 | 0.809 | 0.772 | 0.683 |
| SW 1573 | 0.923 | 0.803 | 0.795 | 0.704 | 0.433 | 0.371 | 0.354 | 0.523 | 0.892 | 0.973 | 0.983 | 1.05 | 0.454 | 0.445 | 0.58 | 0.487 | 1.15 | 0.866 | 1.03 | 0.762 |
| UMC-11 | 0.823 | 0.721 | 0.688 | 0.606 | 0.327 | 0.388 | 0.289 | 0.338 | 0.725 | 0.667 | 0.691 | 0.564 | 0.672 | 0.51 | 0.676 | 0.61 | 1.05 | 0.951 | 0.904 | 0.646 |
